Legend:
MeCP2 KO mice [1] = test: Survival in Rett syndrome model; assay type: in vivo, mouse
Procedure: (§1) CBDV was administered daily at the dose of 2, 20 and 200 mg/kg i.p. starting from PND 28 and the following signs were scored every other day: hindlimb clasping (indication of motor imbalance), tremor, gait (measure of coordination), breathing, mobility and general condition.
(§2) Starting from PND 28, mice received a daily intraperitoneal injection of CBDV (or vehicle) at the dose of 2, 20 and 200 mg/kg. Animals were then scored every other day to evaluate the effect of CBDV treatment on motor symptoms (hindlimb clasping, gait, mobility) as well as neurological signs and general conditions (breathing abnormalities, tremors and general condition) present in MeCP2 knockout (KO) mice.

MeCP2 KO mice [2] = test: Body weight gain in Rett syndrome model; assay type: in vivo, mouse
Procedure: as §1
The CBDV was dissolved in ethanol, cremophor and saline (1:1:18).
as §2

[3] = test system: GFAP, CD11b, TNFα expression in the hippocampus; test: Neuroinflammation studies, hippocampus protein expression by Western blotting, prenatal VPA model; assay type: in vivo, rat
Procedure: At the end of the study, on PND 59, male rats treated with CBDV 20 mg/kg i.p. were sacrificed and the hippocampus was collected 24 hours after the last CBDV injection and stored at −80° C. for evaluation of changes in protein expression of components of the endocannabinoid system (CB1 and CB2 receptors, the endocannabinoid degrading enzymes, FAAH and MAGL and the synthetic enzymes, DAGLα and NAPE-PLD); neuroinflammatory markers (GFAP (astrocytic marker), Iba1 (microglial marker), CD11b (activated microglial marker), TNF-α (proinflammatory cytokine) and iNOS (inflammatory mediator)); synaptic markers (Synaptophysin (synaptic vesicle protein), PSD-95 (post synaptic density protein) and the neurotrophins, BDNF and IGF by Western blotting.

Ube3am-/p+ (AS) mice [4] = test: Novel object recognition in Angelman syndrome model; assay type: in vivo, mouse; details: CBDV 20 mg/kg i.p.; AS mice at 7-8 weeks vs AS vehicle
Procedure: (§3) Heterozygous mice with maternal deficiency of Ube3A (Ube3am−/p+) and wild type (Ube3am+/p+) were purchased from The Jackson Laboratory (Jackson code: B6.129S7-Ube3a tm1Alb/J) and maintained in a C57BL/6 background.
(§4) Drugs were dissolved in 1:1:18 ethanol:cremophor:0.9% saline, for intraperitoneal (i.p.) administration. Drug treatment was performed daily for 35 days. CBDV was administered at 20 mg/kg.
Novel Object Recognition: The novel object recognition assesses recognition memory in mice. The experiment started with the habituation period, during which mice were allowed to freely explore for 1 hour the apparatus which consists of a rectangular open box (40×30×30 cm width×length×height) made of grey polyvinyl chloride (PVC) illuminated by a dim light. The day after each mouse was allowed to explore two identical objects positioned in the back left and right corners for 5 min (acquisition). A video camera recorded the time spent on exploration of each object. […] The behaviour of mice was analyzed by an observer blind to the treatment. Data are expressed as percentage of recognition index (RI %), which was calculated as the percentage of the time spent exploring the novel object/time spent exploring the novel object+time spent exploring the familiar object×100.

Ube3am-/p+ (AS) mice [5] = test: Rotarod test in Angelman syndrome model; assay type: in vivo, mouse; details: CBDV 20 mg/kg i.p. chronic treatment (30 days); AS mice vs AS vehicle
Procedure: as §3, §4
Rotarod: The rotarod test assesses balance and motor coordination of mice. Mice have been measured for the time (in seconds) of equilibrium before falling on a rotary cylinder by a magnet that, activated from the fall of the mouse on the plate, allows to record the time of permanence on the cylinder. […] The animals were analysed by 2 separate tests at 1-h interval in the same day.

Ube3am-/p+ (AS) mice [6] = test: Tail suspension test in Angelman syndrome model; assay type: in vivo, mouse; details: CBDV 20 mg/kg i.p.; AS mice vs AS vehicle
Procedure: as §3, §4
Tail suspension: The tail suspension test assesses depressive-like behaviour in mice. Mice were individually suspended by the tail on a horizontal bar (50 cm from floor) using adhesive tape placed approximately 4 cm from the tip of the tail. The duration of immobility was recorded in seconds over a period of 6 minutes by a time recorder. Immobility time was defined as the absence of escape-oriented behaviour.

VPA-exposed rats = test: Locomotor activity and repetitive behaviours (self-grooming), prenatal VPA model; assay type: in vivo, rat; details: VPA offspring
Procedure: Pregnant Sprague-Dawley rats (Charles River, Calco, Italy), received a single intraperitoneal injection of 500 mg/kg sodium valproate on the 12.5 day after conception, and control females were injected with physiological saline at the same time. Sodium valproate (Sigma Aldrich, Milan, IT) was dissolved in saline at a concentration of 250 mg/ml.
CBDV was dissolved in ethanol, cremophor and saline (1:1:18). Symptomatic treatment with CBDV at doses of 0.2, 2, 20, and 100 mg/kg/day i.p. was performed starting from PND 34 (early adolescence) till 56 (early adulthood), both in male and female offspring of dams injected with VPA 500 mg/kg (or vehicle) on day 12.5 after conception. At PND 56, a series of behavioural tests was performed in order to assess the effect of chronic CBDV on sociability, social novelty, short-term memory, locomotion and stereotyped/repetitive behaviours.
Locomotor activity and repetitive behaviours: Locomotor activity was recorded in an activity cage for 20 minutes with the aid of Anymaze program (Ugo Basile, Italy). In this period, repetitive behaviours (self-grooming and digging) were measured by an observer blind to the treatment group.

With C=C(C)[C@@H]1CCC(C)=C[C@H]1c1c(O)cc(CCC)cc1O [CBDV, Cannabidivarin] the survival rate (MeCP2 KO mice [1]; CBDV 200 mg/kg, PND 67, vehicle 25%) was 75%, the “survival measured at PND 67 (FIG. 5)” value (MeCP2 KO mice [1]; all three doses (2, 20, 200 mg/kg)) was “increase survival” and the “body weight gain (FIG. 4A)” value (MeCP2 KO mice [2]; 2, 20 and 200 mg/kg i.p. daily PND 28-66, MeCP2 KO mice) was “partially prevent the reduction in body weight”. The “body weight, area under the curve (FIG. 4B)” value (MeCP2 KO mice [2]; KO mice) was “significantly rescued body weight”, the “body weight, area under the curve (FIG. 4B)” value (MeCP2 KO mice [2]; WT controls) was “without affecting body weight” and the “expression of inflammatory markers that were increased (GFAP, CD11b, TNFα) in hippocampus (FIG. 2D)” value ([3]; chronic CBDV 20 mg/kg i.p., male VPA-exposed rats) was “completely normalised”. The “expression of inflammatory markers in hippocampus (FIG. 2D)” value ([3]; chronic CBDV, control rats) was “no effect”, the “discrimination index, novel object recognition (FIG. 13)” value (Ube3am-/p+ (AS) mice [4]) was “significantly increased the discrimination index” and the “latency to fall, rotarod (FIG. 12)” value (Ube3am-/p+ (AS) mice [5]) was “reduced latency to fall”. For the same compound, the “duration of immobility time, tail suspension (FIG. 14)” value (Ube3am-/p+ (AS) mice [6]) was “significantly reduced the duration of immobility time”, the “repetitive behaviours (compulsive self-grooming) (FIG. 2A)” value (VPA-exposed rats; 20 mg/kg in males) was “significantly normalize” and the “locomotor activity (FIG. 2B)” value (VPA-exposed rats; 2, 20 and 100 mg/kg in males) was “normalize”. The “repetitive behaviours (compulsive self-grooming) (FIG. 2A)” value (VPA-exposed rats; 2 and 100 mg/kg in females) was “significantly normalize”.

From US11752111B2, “Use of cannabidivarin in the treatment of autism spectrum disorder, associated disorders and schizophrenia” (GW Research Limited, priority 2016, dated 2023)
